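Test compounds were applied to cells in 96-well plates for 48 hours at 5 doses. The concentration for 50% growth inhibition is given as GI50.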 The source made the active and inactive calls. Rule as the data show it: active = GI50 up to about 1.1 µM and inactive = higher. Peptide text beside a SMILES is read from it. * marks the point of attachment. Boc = CC(C)(C)OC(=O)*; OBn = c1ccc(CO*)cc1
How the values were obtained:
Experiment in all cases: NCI-60 cell line screen, 48 h
CCRF-CEM = test system: CCRF-CEM
RXF 393 = test system: RXF 393
OVCAR-8 = test system: OVCAR-8
SF-268 = test system: SF-268
HOP-92 = test system: HOP-92
SNB-19 = test system: SNB-19
HCC 2998 = test system: HCC 2998
KM12 = test system: KM12
HT-29 = test system: HT-29
HCT-116 = test system: HCT-116
A498 = test system: A498
786-0 = test system: 786-0
M14 = test system: M14
RPMI-8226 = test system: RPMI-8226
NCI-H23 = test system: NCI-H23
IGROV-1 = test system: IGROV-1
TK-10 = test system: TK-10
ACHN = test system: ACHN
SK-MEL-2 = test system: SK-MEL-2
CAKI-1 = test system: CAKI-1

| Compound | GI50 (CCRF-CEM) | GI50 (RXF 393) | GI50 (OVCAR-8) | GI50 (SF-268) | GI50 (HOP-92) | GI50 (SNB-19) | GI50 (HCC 2998) | GI50 (KM12) | GI50 (HT-29) | GI50 (HCT-116) | GI50 (A498) | GI50 (786-0) | GI50 (M14) | GI50 (RPMI-8226) | GI50 (NCI-H23) | GI50 (IGROV-1) | GI50 (TK-10) | GI50 (ACHN) | GI50 (SK-MEL-2) | GI50 (CAKI-1) |
| --- | --- | --- | --- | --- | --- | --- | --- | --- | --- | --- | --- | --- | --- | --- | --- | --- | --- | --- | --- | --- |
| COc1cc2nc(-c3cccc(N(C)C)c3)cc(O)c2cc1OC | 3.87 µM (inactive) | 2.21 µM (inactive) | 6.03 µM (inactive) | 16.6 µM (inactive) | > 100 µM (inactive) | 4.98 µM (inactive) | 2.39 µM (inactive) | 3.31 µM (inactive) | 3.2 µM (inactive) | 4.8 µM (inactive) | 6.03 µM (inactive) | 3.57 µM (inactive) | 2.07 µM (inactive) | 3.65 µM (inactive) | 3.54 µM (inactive) | 7.11 µM (inactive) | > 100 µM (inactive) | 14.5 µM (inactive) |  |  |
| O=C1CCC2(c3ccccc3)OCC([C@@H](O)c3ccccc3)N12 (stereo partly drawn) | > 100 µM (inactive) | > 100 µM (inactive) | > 100 µM (inactive) | > 100 µM (inactive) | > 100 µM (inactive) | > 100 µM (inactive) |  | > 100 µM (inactive) | > 100 µM (inactive) | > 100 µM (inactive) | > 100 µM (inactive) | > 100 µM (inactive) |  | > 100 µM (inactive) | > 100 µM (inactive) | > 100 µM (inactive) | > 100 µM (inactive) | > 100 µM (inactive) | > 100 µM (inactive) | > 100 µM (inactive) |
| C=C(C1=CC(=O)C(C)(C)O1)[C@@H]1CC=C([C@@H]2CC[C@H]3[C@@]2(C)CC[C@H]2C(C)(C)C(=O)[C@H](OC(=O)CC(C)(O)CC(=O)O)C[C@]32C)[C@H](O)O1 (stereo partly drawn) | 2.19 µM (inactive) | 0.106 µM (active) | 13.4 µM (inactive) | 10.9 µM (inactive) | 12.7 µM (inactive) | 25.4 µM (inactive) |  | 14.1 µM (inactive) | 16.8 µM (inactive) | 12.9 µM (inactive) | 13 µM (inactive) | 11.1 µM (inactive) | 13.5 µM (inactive) | 2.48 µM (inactive) | 13.6 µM (inactive) | 12.4 µM (inactive) | 27.4 µM (inactive) | 14 µM (inactive) | 12.9 µM (inactive) | 17.2 µM (inactive) |
| C=CCC(CC=O)(C(=O)OCC)C(=O)OCC | > 100 µM (inactive) | > 100 µM (inactive) | > 100 µM (inactive) | > 100 µM (inactive) | > 100 µM (inactive) | > 100 µM (inactive) |  | > 100 µM (inactive) | > 100 µM (inactive) | > 100 µM (inactive) | > 100 µM (inactive) | > 100 µM (inactive) | > 100 µM (inactive) | > 100 µM (inactive) | > 100 µM (inactive) | > 100 µM (inactive) | > 100 µM (inactive) | > 100 µM (inactive) | > 100 µM (inactive) | > 100 µM (inactive) |
| CS/C(=N\S(=O)(=O)c1ccc(Cl)cc1)NCCN/C(=N/S(=O)(=O)c1ccc(Cl)cc1)SC | > 100 µM (inactive) |  | 19.9 µM (inactive) | 21.3 µM (inactive) | 14.2 µM (inactive) | 35.7 µM (inactive) | > 100 µM (inactive) |  | > 100 µM (inactive) | > 100 µM (inactive) | 37.5 µM (inactive) | 24.8 µM (inactive) | > 100 µM (inactive) | > 100 µM (inactive) | 48 µM (inactive) | > 100 µM (inactive) | 31.6 µM (inactive) | > 100 µM (inactive) | 30.1 µM (inactive) | > 100 µM (inactive) |
| COC(=O)C1CC(C(=O)OC)c2nc3cc(C)c(C)cc3nc21 (stereo not drawn) | > 100 µM (inactive) |  | > 100 µM (inactive) | > 100 µM (inactive) | > 100 µM (inactive) | > 100 µM (inactive) | > 100 µM (inactive) | > 100 µM (inactive) | > 100 µM (inactive) |  | > 100 µM (inactive) | > 100 µM (inactive) | > 100 µM (inactive) | > 100 µM (inactive) | > 100 µM (inactive) | > 100 µM (inactive) | > 100 µM (inactive) | > 100 µM (inactive) | > 100 µM (inactive) | > 100 µM (inactive) |
| Cc1cccc(N(C(=O)Nc2ccc(Cl)c(Cl)c2)C2=NCC(C)S2)c1 (stereo not drawn) | 46.1 µM (inactive) |  | 60.4 µM (inactive) | 23.2 µM (inactive) | 38.6 µM (inactive) | > 100 µM (inactive) | 36.8 µM (inactive) | 18.9 µM (inactive) | 11.4 µM (inactive) | 43.1 µM (inactive) | 57.8 µM (inactive) | 31.8 µM (inactive) | 0.55 µM (active) | 49.1 µM (inactive) | 37.3 µM (inactive) | 69.7 µM (inactive) | 23.8 µM (inactive) | 50.1 µM (inactive) | 23.8 µM (inactive) | 46.5 µM (inactive) |
| COc1ccc2c(c1)nc1n2C(c2c(Cl)cccc2Cl)SC1 (stereo not drawn) |  |  | > 61 µM (inactive) | 20 µM (inactive) | > 71.4 µM (inactive) | > 33.5 µM (inactive) | 11.2 µM (inactive) | 12.4 µM (inactive) | 15.2 µM (inactive) | 7.85 µM (inactive) | 46.5 µM (inactive) | 21.3 µM (inactive) | 12.4 µM (inactive) | > 23.5 µM (inactive) | 38.4 µM (inactive) | 18.1 µM (inactive) | > 58.6 µM (inactive) | 40.8 µM (inactive) | > 20.7 µM (inactive) | > 60.7 µM (inactive) |
| CC(C)CC(NC(=O)OC(C)(C)C)C(=O)NC(CC(=O)OCc1ccccc1)C(N)=O (stereo not drawn) (Boc-Leu-Asp(OBn)-NH2; configuration not given here) |  | > 100 µM (inactive) | > 100 µM (inactive) | > 100 µM (inactive) | > 100 µM (inactive) | > 100 µM (inactive) |  | > 100 µM (inactive) | > 100 µM (inactive) | > 100 µM (inactive) | > 100 µM (inactive) | > 100 µM (inactive) | > 100 µM (inactive) |  | > 100 µM (inactive) | > 100 µM (inactive) | > 100 µM (inactive) | > 100 µM (inactive) | > 100 µM (inactive) | > 100 µM (inactive) |
| CC1CC(=O)C(CC(=O)O)[C@H]1C(C(=O)C(=O)Nc1cc(Cl)ccc1Cl)[N+](=O)[O-] (stereo partly drawn) | > 100 µM (inactive) | > 100 µM (inactive) | > 100 µM (inactive) | > 100 µM (inactive) | > 100 µM (inactive) | > 100 µM (inactive) | > 100 µM (inactive) | > 100 µM (inactive) | > 100 µM (inactive) |  | > 100 µM (inactive) | > 100 µM (inactive) |  | > 100 µM (inactive) |  | > 100 µM (inactive) | > 100 µM (inactive) | > 100 µM (inactive) |  | > 100 µM (inactive) |
| C#CCOC(=O)C=[N+]=[N-] | > 10 µM (inactive) | > 10 µM (inactive) | > 10 µM (inactive) | > 10 µM (inactive) | > 10 µM (inactive) | > 10 µM (inactive) |  | > 10 µM (inactive) | > 10 µM (inactive) | > 10 µM (inactive) | 6.92 µM (inactive) | > 10 µM (inactive) | > 10 µM (inactive) | > 10 µM (inactive) | > 10 µM (inactive) | > 10 µM (inactive) |  | > 10 µM (inactive) | > 10 µM (inactive) |  |
| C=C1C(=O)OC2(C)CCC1CC1OC1(C)CCC=C(C)CCC2O (stereo not drawn) | 7.08 µM (inactive) |  | > 100 µM (inactive) | > 100 µM (inactive) | > 100 µM (inactive) | > 100 µM (inactive) | > 100 µM (inactive) | > 100 µM (inactive) | > 100 µM (inactive) | > 100 µM (inactive) | 35.9 µM (inactive) | > 100 µM (inactive) | > 100 µM (inactive) | 53 µM (inactive) | > 100 µM (inactive) | > 100 µM (inactive) | > 100 µM (inactive) | > 100 µM (inactive) | 75 µM (inactive) | > 100 µM (inactive) |
| COc1cc(C2S/C(=C/c3ccccc3)C(=O)N2Cc2ccccc2)cc(OC)c1OC (stereo not drawn) | 23.1 µM (inactive) |  | 37.6 µM (inactive) | 33.1 µM (inactive) | 28.8 µM (inactive) | 57.9 µM (inactive) | 21 µM (inactive) | 36.1 µM (inactive) | 53.5 µM (inactive) | 17.5 µM (inactive) | 45.5 µM (inactive) | 41.1 µM (inactive) | 33.1 µM (inactive) | 21.5 µM (inactive) | 67.3 µM (inactive) | 42.2 µM (inactive) | > 100 µM (inactive) | 64.7 µM (inactive) | 39.1 µM (inactive) | 36.8 µM (inactive) |
| C#C[C@]1(O)[C@@H](CO)O[C@@H](n2ccc(=O)[nH]c2=O)[C@@H]1O | 0.19 µM (active) |  | < 0.01 µM (active) | 0.116 µM (active) | 0.132 µM (active) | 1.03 µM (active) | 0.0592 µM (active) | 0.144 µM (active) | 0.0171 µM (active) | < 0.01 µM (active) | 0.724 µM (active) | < 0.0121 µM (active) | 0.237 µM (active) | 0.0101 µM (active) | 0.428 µM (active) | 0.0745 µM (active) | 0.413 µM (active) | 0.0272 µM (active) | 0.15 µM (active) | < 0.0161 µM (active) |
| O=c1[nH]nc(Cc2ccc(Cl)cc2)n1/N=C\c1ccc(/C=N/n2c(Cc3ccc(Cl)cc3)n[nH]c2=O)cc1 | > 100 µM (inactive) | 29.7 µM (inactive) | 54 µM (inactive) | 37.9 µM (inactive) | 28.3 µM (inactive) | 50.7 µM (inactive) |  | > 100 µM (inactive) | > 100 µM (inactive) | > 100 µM (inactive) | > 100 µM (inactive) | 13.3 µM (inactive) | > 100 µM (inactive) | > 100 µM (inactive) | > 100 µM (inactive) | > 100 µM (inactive) | 0.855 µM (active) | 29.9 µM (inactive) | 38.5 µM (inactive) | 33.3 µM (inactive) |
